From patent publication US20250163022A1, “PARP1 INHIBITORS” (Synnovation Therapeutics, Inc., priority 2021, published 2025)

What follows are molecules tested against T1, PARP1 (Homo sapiens, UniProt P09874) (assay: In-Cell Western measurement of PARylation in PARP1 WT and knockout cells). Settings: HeLa cells (wide-type with PARP1 gene); hydrogen peroxide-induced PARylation; compounds 30 min, then 10 mM hydrogen peroxide 15 min; read-out: HeLa_WT_IC50.
T1 construct: HeLa cells (wide-type with PARP1 gene) were purchased from ATCC; host or cells: HeLa (wild type)
Type: cell-based
Description: The purpose of this cell-based assay is to measure the potency and selectivity of synthesized PARP inhibitors in suppressing hydrogen peroxide-induced PARylation in cells with and without PARP1 expression. Several cell lines were used in this assay. The human PARP1 knockout HEK-293T cell line (#ab266598) was purchased from Abcam, and its corresponding wide-type control is the human wild-type HEK-293T cell line (#ab255449). The HAP1 isogenic cell lines with and without the PARP1 gene (#HZGHC003943c006) were purchased from Horizon Discovery. HeLa cells (wide-type with PARP1 gene) were purchased from ATCC. Cells were cultured using complete medium containing 10% fetal bovine serum. One day before the assay, cells were seeded in 96-well plates at the density of 20,000 cells per well in 100 uL complete medium. Compounds were dissolved using DMSO and diluted to the working concentrations using complete medium. Cells were pre-treated with compounds for 30 min and then stimulated with 10 mM hydrogen peroxide for 15 min. After stimulation, cells were immediately fixed using ice-cold methanol for 20 min. After fixation, cells were washed using 1×PBST buffer for 3 times, 5 min each time, to eliminate residual methanol. Cells were blocked for 2 h at room temperature in blocking buffer (LI-COR Biosciences, #927-70001). Primary antibody was diluted in diluent buffer (LI-COR Biosciences, #927-75001, 1:200) at 50 uL per well. Cells were incubated with the primary antibody at 4° C. for 18 h. The wells were then washed using 1×PBST for 3 times, 5 min each time. IRDye® 680RD Goat anti-Mouse IgG (H+L) secondary antibody was diluted at 1/2000 using the diluent buffer and added at 100 μL per well. Secondary antibody incubation was for 1 h at room temperature. Cells were then washed using 1×PBST for 3 times, 5 min each time. The signal was detected and analyzed using LI-COR Odyssey DLx Imaging system. Data were collected and further processed using GraphPad Prism for IC50 estimation.

T1 sequence (P09874 whole entry): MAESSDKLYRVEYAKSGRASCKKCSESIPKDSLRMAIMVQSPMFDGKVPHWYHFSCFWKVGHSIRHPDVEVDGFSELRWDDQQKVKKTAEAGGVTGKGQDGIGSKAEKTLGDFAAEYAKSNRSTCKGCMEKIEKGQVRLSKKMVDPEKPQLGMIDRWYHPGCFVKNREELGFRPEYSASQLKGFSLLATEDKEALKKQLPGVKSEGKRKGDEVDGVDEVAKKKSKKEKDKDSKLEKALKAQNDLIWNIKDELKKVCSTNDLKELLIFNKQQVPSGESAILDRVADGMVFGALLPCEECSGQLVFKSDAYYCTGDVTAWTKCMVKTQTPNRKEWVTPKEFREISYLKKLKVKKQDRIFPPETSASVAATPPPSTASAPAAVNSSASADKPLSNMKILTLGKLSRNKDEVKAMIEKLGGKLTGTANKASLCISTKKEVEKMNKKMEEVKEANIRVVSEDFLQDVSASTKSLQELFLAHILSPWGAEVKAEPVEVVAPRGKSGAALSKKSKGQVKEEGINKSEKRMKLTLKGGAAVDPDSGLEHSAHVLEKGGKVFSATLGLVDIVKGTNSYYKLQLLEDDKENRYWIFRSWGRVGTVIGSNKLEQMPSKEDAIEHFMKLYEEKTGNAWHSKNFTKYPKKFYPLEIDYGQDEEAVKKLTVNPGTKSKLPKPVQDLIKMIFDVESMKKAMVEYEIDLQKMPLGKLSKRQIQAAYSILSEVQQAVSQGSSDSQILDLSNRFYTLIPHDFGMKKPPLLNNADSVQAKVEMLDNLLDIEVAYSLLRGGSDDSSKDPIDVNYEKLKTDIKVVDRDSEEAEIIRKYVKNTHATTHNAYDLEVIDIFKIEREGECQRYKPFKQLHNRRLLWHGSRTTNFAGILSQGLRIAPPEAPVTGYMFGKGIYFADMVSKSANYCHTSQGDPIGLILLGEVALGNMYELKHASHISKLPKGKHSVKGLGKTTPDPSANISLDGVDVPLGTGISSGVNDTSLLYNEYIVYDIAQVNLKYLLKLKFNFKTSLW

Question: With `CCn1c(=O)[nH]c2cc(CN3CCN(c4ccc(C(=O)NC)nc4F)CC3)ccc2c1=O` [Compound I-29, 5-(4-((3-Ethyl-2,4-dioxo-1,2,3,4-tetrahydroquinazolin-7-yl)methyl)piperazin-1-yl)-6-fluoro-N-methylpicolinamide] as the molecule, how does the IC50 read?
Answer: ≤ 10 nM

Question: Which IC50 does the source give for `CNC(=O)c1ccc(N2CCN(Cc3cc4[nH]c(=O)c5c(c4cn3)CCC5)CC2)c(C)n1` [Compound I-30, N,6-dimethyl-5-(4-((6-oxo-6,7,8,9-tetrahydro-5H-cyclopenta[c][1,6]naphthyridin-3-yl)methyl)piperazin-1-yl)picolinamide] here?
Answer: ≤ 10 nM

Question: For `CCn1c(=O)[nH]c2cc(CN3CCN(c4ccc(C(=O)NC)nc4C(F)(F)F)CC3)ccc2c1=O` [Compound I-31, 5-(4-((3-Ethyl-2,4-dioxo-1,2,3,4-tetrahydroquinazolin-7-yl)methyl)piperazin-1-yl)-N-methyl-6-(trifluoromethyl)picolinamide], which IC50 is on record?
Answer: ≤ 10 nM

Question: How did the IC50 turn out when `CCn1c(=O)[nH]c2cc(CN3CCN(c4ccc(C(=O)NC)nc4C)CC3)cc(Cl)c2c1=O` [Compound I-32, 5-(4-((5-chloro-3-ethyl-2,4-dioxo-1,2,3,4-tetrahydroquinazolin-7-yl)methyl)piperazin-1-yl)-N,6-dimethylpicolinamide] was run?
Answer: ≤ 10 nM

Question: How did the IC50 turn out when `CCn1c(=O)[nH]c2cc(CN3CCN(c4ccc(C(=O)NC)nc4F)CC3)cc(F)c2c1=O` [Compound I-33, 5-(4-((3-Ethyl-5-fluoro-2,4-dioxo-1,2,3,4-tetrahydroquinazolin-7-yl)methyl)piperazin-1-yl)-6-fluoro-N-methylpicolinamide] was run?
Answer: ≤ 10 nM

Question: How did the IC50 turn out when `CCN1C(=O)Nc2c(F)c(CN3CCN(c4ccc(C(=O)NC)nc4C)CC3)cc3c2c1nn3C` [Compound I-34, 5-(4-((3-Ethyl-6-fluoro-1-methyl-4-oxo-1,3,4,5-tetrahydropyrazolo[3,4,5-de]quinazolin-7-yl)methyl)piperazin-1-yl)-N,6-dimethylpicolinamide] was run?
Answer: ≤ 10 nM

Question: For `CCN1C(=O)Nc2c(F)c(CN3CCN(c4ccc(C(=O)NC)nc4C)CC3)cc3ncnc1c23` [Compound I-35, 5-(4-((3-ethyl-9-fluoro-2-oxo-2,3-dihydro-1H-pyrimido[4,5,6-de]quinazolin-8-yl)methyl)piperazin-1-yl)-N,6-dimethylpicolinamide], which IC50 is on record?
Answer: ≤ 10 nM

Question: With `[2H]C([2H])([2H])NC(=O)c1ccc(N2CCN(Cc3cc(F)c4c(=O)n(CC)c(=O)[nH]c4c3)CC2)c(C([2H])([2H])[2H])n1` [Compound I-36, 5-(4-((3-Ethyl-5-fluoro-2,4-dioxo-1,2,3,4-tetrahydroquinazolin-7-yl)methyl)piperazin-1-yl)-N,6-bis(methyl-d3)picolinamide] as the molecule, how does the IC50 read?
Answer: ≤ 10 nM

Question: For `CCn1c(=O)[nH]c2cc(CN3CCN(c4ccc(C(=O)NC)nc4C)CC3)cc(C(F)F)c2c1=O` [Compound I-37, 5-(4-((5-(Difluoromethyl)-3-ethyl-2,4-dioxo-1,2,3,4-tetrahydroquinazolin-7-yl)methyl)piperazin-1-yl)-N,6-dimethylpicolinamide], which IC50 is on record?
Answer: ≤ 10 nM

Question: `CNC(=O)c1ccc(N2CCN(Cc3cc(OC)c4c(=O)n(C)c(=O)[nH]c4c3F)CC2)c(C)n1` [Compound I-38, 5-(4-((8-Fluoro-5-methoxy-3-methyl-2,4-dioxo-1,2,3,4-tetrahydroquinazolin-7-yl)methyl)piperazin-1-yl)-N,6-dimethylpicolinamide] was tested. Which IC50 did it give?
Answer: ≤ 10 nM

Question: With `CCn1c(=O)[nH]c2c(F)c(CN3CCN(c4ccc(C(=O)NC)nc4C)CC3)cc(Cl)c2c1=O` [Compound I-39, 5-(4-((5-chloro-3-ethyl-8-fluoro-2,4-dioxo-1,2,3,4-tetrahydroquinazolin-7-yl)methyl)piperazin-1-yl)-N,6-dimethylpicolinamide] as the molecule, how does the IC50 read?
Answer: ≤ 10 nM

Question: Which IC50 does the source give for `CCn1c(=O)[nH]c2c(F)c(CN3CCN(c4ccc(C(=O)NC)nc4C)CC3)cc(C3CC3)c2c1=O` [Compound I-40, 5-(4-((5-Cyclopropyl-3-ethyl-8-fluoro-2,4-dioxo-1,2,3,4-tetrahydroquinazolin-7-yl)methyl)piperazin-1-yl)-N,6-dimethylpicolinamide] here?
Answer: ≤ 10 nM

Question: For `CCn1c(=O)[nH]c2c(F)c(CN3CCN(c4ccc(C(=O)NC)nc4C)CC3)cc(CO)c2c1=O` [Compound I-41, 5-(4-((3-Ethyl-8-fluoro-5-(hydroxymethyl)-2,4-dioxo-1,2,3,4-tetrahydroquinazolin-7-yl)methyl)piperazin-1-yl)-N,6-dimethylpicolinamide], which IC50 is on record?
Answer: ≤ 10 nM

Question: Which IC50 does the source give for `CCn1c(=O)[nH]c2c(F)c(CN3CCN(c4ccc(C(=O)NC)nc4C)CC3)cc(CC#N)c2c1=O` [Compound I-42, 5-(4-((5-(Cyanomethyl)-3-ethyl-8-fluoro-2,4-dioxo-1,2,3,4-tetrahydroquinazolin-7-yl)methyl)piperazin-1-yl)-N,6-dimethylpicolinamide] here?
Answer: ≤ 10 nM

Question: For `CCNC(=O)c1ccc(N2CCN(Cc3cc(Cl)c4c(=O)n(C)c(=O)[nH]c4c3)CC2)c(C)n1` [Compound I-43, 5-(4-((5-Chloro-3-methyl-2,4-dioxo-1,2,3,4-tetrahydroquinazolin-7-yl)methyl)piperazin-1-yl)-N-ethyl-6-methylpicolinamide], which IC50 is on record?
Answer: ≤ 10 nM

Question: For `[2H]C([2H])([2H])NC(=O)c1ccc(N2CCN(Cc3ccc4c(=O)n(CC)c(=O)[nH]c4c3)CC2)c(C([2H])([2H])[2H])n1` [Compound I-44, 5-(4-((3-ethyl-2,4-dioxo-1,2,3,4-tetrahydroquinazolin-7-yl)methyl)piperazin-1-yl)-N,6-bis(methyl-d3)picolinamide], which IC50 is on record?
Answer: ≤ 10 nM

Question: Which IC50 does the source give for `CCN1C(=O)Nc2cc(CN3CCN(c4ccc(C(=O)NC)nc4C)CC3)cc3cnnc1c23` [Compound I-45, 5-[4-[(12-Ethyl-11-oxo-2,3,10,12-tetrazatricyclo[7.3.1.05,13]trideca-1,3,5,7,9 (13)-pentaen-7-yl)methyl]piperazin-1-yl]-N,6-dimethyl-pyridine-2-carboxamide] here?
Answer: ≤ 10 nM

Question: `CCn1c(=O)[nH]c2c(F)c(CN3CCN(c4ccc(C(=O)NC)nc4C)CC3)cc(COC)c2c1=O` [Compound I-46, 5-(4-((3-Ethyl-8-fluoro-5-(methoxymethyl)-2,4-dioxo-1,2,3,4-tetrahydroquinazolin-7-yl)methyl)piperazin-1-yl)-N,6-dimethylpicolinamide] was tested. Which IC50 did it give?
Answer: ≤ 10 nM

Question: For `CNC(=O)c1ccc(N2CCN(Cc3cc(C(F)F)c4c(=O)n(C)c(=O)[nH]c4c3)CC2)c(C)n1` [Compound I-47, 5-(4-((5-(Difluoromethyl)-3-methyl-2,4-dioxo-1,2,3,4-tetrahydroquinazolin-7-yl)methyl)piperazin-1-yl)-N,6-dimethylpicolinamide], which IC50 is on record?
Answer: ≤ 10 nM

Question: How did the IC50 turn out when `CCNC(=O)c1ccc(N2CCN(Cc3cc(Cl)c4c(=O)n(CC)c(=O)[nH]c4c3)CC2)c(C)n1` [Compound I-48, 5-(4-((5-chloro-3-ethyl-2,4-dioxo-1,2,3,4-tetrahydroquinazolin-7-yl)methyl)piperazin-1-yl)-N-ethyl-6-methylpicolinamide] was run?
Answer: ≤ 10 nM

Question: Which IC50 does the source give for `CNC(=O)c1ccc(N2CCN(Cc3cc(C4CC4)c4c(=O)n(C)c(=O)[nH]c4c3F)CC2)c(C)n1` [Compound I-49, 5-(4-((5-Cyclopropyl-8-fluoro-3-methyl-2,4-dioxo-1,2,3,4-tetrahydroquinazolin-7-yl)methyl)piperazin-1-yl)-N,6-dimethylpicolinamide] here?
Answer: ≤ 10 nM

Question: For `CCN1C(=O)Nc2c(F)c(CN3CCN(c4ccc(C(=O)NC)nc4C)CC3)cc3nc(OC)nc1c23` [Compound I-50, 5-(4-((3-Ethyl-9-fluoro-5-methoxy-2-oxo-2,3-dihydro-1H-pyrimido[4,5,6-de]quinazolin-8-yl)methyl)piperazin-1-yl)-N,6-dimethylpicolinamide], which IC50 is on record?
Answer: ≤ 10 nM

Question: `CCN1C(=O)Nc2c(F)c(CN3CCN(c4ccc(C(=O)NC)nc4C)CC3)cc3c2c1nc(=O)n3C` [Compound I-51, 5-(4-((3-Ethyl-9-fluoro-6-methyl-2,5-dioxo-2,3,5,6-tetrahydro-1H-pyrimido[4,5,6-de]quinazolin-8-yl)methyl)piperazin-1-yl)-N,6-dimethylpicolinamide] was tested. Which IC50 did it give?
Answer: 10 to 100 nM

Question: How did the IC50 turn out when `CCN1C(=O)Nc2c(F)c(CN3CCN(c4ccc(C(=O)NC)nc4C)CC3)cc3nc(C)nc1c23` [Compound I-52, 5-(4-((3-Ethyl-9-fluoro-5-methyl-2-oxo-2,3-dihydro-1H-pyrimido[4,5,6-de]quinazolin-8-yl)methyl)piperazin-1-yl)-N,6-dimethylpicolinamide] was run?
Answer: ≤ 10 nM

Question: `CCN1C(=O)Nc2c(F)c(CN3CCN(c4ccc(C(=O)NC)nc4C)CC3)cc3c(C)nnc1c23` [Compound I-54, 5-(4-((9-Ethyl-6-fluoro-3-methyl-8-oxo-8,9-dihydro-7H-pyridazino[3,4,5-de]quinazolin-5-yl)methyl)piperazin-1-yl)-N,6-dimethylpicolinamide] was tested. Which IC50 did it give?
Answer: ≤ 10 nM
